From PMC2819980 (Chemistry & biology, 2010)

Tests used:
Assay type in all cases: biochemical
FrbH = FrbH (Streptomyces rubellomurinus, UniProt Q0ZQ41); assay: HPLC / LC-MS product analysis; conditions: 10 mM MgCl2, HEPES pH 7.25, 30 °C
FrbI [1] = target: T1, FrbI (Streptomyces rubellomurinus, UniProt Q0ZQ40); assay: in vitro hydrolysis
FrbI [2] = target: T1, FrbI; assay: HPLC / LC-MS product analysis, coupled with FrbH, FrbF and FrbG; conditions: 10 mM MgCl2, HEPES pH 7.25, 30 °C; substrate formed in situ

Sequence of FrbH (Q0ZQ41 whole entry): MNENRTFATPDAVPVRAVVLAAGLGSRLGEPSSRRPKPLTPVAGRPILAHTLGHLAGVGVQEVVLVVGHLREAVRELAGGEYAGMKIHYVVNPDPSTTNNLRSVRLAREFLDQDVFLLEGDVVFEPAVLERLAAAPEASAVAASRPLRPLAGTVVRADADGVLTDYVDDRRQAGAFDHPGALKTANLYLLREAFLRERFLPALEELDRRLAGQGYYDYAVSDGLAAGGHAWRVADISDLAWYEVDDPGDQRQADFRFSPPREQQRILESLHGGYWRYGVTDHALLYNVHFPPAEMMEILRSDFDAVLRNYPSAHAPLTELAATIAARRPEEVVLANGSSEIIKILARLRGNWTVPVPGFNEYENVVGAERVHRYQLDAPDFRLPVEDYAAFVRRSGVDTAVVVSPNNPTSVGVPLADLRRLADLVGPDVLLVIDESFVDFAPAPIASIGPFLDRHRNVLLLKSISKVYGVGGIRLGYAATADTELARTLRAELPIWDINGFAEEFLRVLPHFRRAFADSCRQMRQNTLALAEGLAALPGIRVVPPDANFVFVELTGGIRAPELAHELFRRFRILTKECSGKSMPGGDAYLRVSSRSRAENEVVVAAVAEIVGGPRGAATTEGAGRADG
T1 sequence (Q0ZQ40 whole entry): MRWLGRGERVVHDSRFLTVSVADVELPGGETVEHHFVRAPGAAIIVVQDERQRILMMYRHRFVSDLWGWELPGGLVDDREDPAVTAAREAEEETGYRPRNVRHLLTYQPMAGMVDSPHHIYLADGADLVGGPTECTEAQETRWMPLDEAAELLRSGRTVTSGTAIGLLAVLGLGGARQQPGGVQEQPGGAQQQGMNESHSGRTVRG

NC(CCP(=O)(O)O)C(=O)O (racemic) [VI, 2APn]
HPLC / LC-MS product analysis (FrbH; 1 mM CTP): FrbH condenses 2APn and CTP to form CMP-5'-2APn

Nc1ccn([C@@H]2O[C@H](COP(=O)(O)OP(=O)(O)OP(=O)(O)O)[C@@H](O)[C@H]2O)c(=O)n1 [CTP]
HPLC / LC-MS product analysis (FrbH; 2 mM (±)-2APn): FrbH condenses 2APn and CTP to form CMP-5'-2APn
in vitro hydrolysis (FrbI [1]): even showed a small amount of activity toward CTP

CC(=O)N(O)CCCP(=O)(O)OP(=O)(O)OC[C@H]1O[C@@H](n2ccc(N)nc2=O)[C@H](O)[C@@H]1O [IX, CMP-5'-FR-900098]
HPLC / LC-MS product analysis, coupled with FrbH, FrbF and FrbG (FrbI [2]): FrbI catalyzes the hydrolysis of CMP-5'-FR-900098 to form FR-900098 and CMP
